Measurements as given in patent US9938258B2 (Karyopharm Therapeutics Inc., priority 2012, dated 2018).
Where a name gives a salt, the structure may show the parent alone. Read-outs that look alike come from different tables or passages of the source.

How the values were obtained:
[1] = system: MS751 cells; test: MTT cell proliferation assay, MS751; assay type: cell-based, human; details: Homo sapiens, MS751, MS751 cells, read-out: MTT Assay IC50, MS751
Method in brief: (§1)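 Cells were seeded at 5,000-10,000 per well, left to attach overnight, then exposed to eight compound concentrations from 1 nM to 30 μM. After about 4 h with MTT, solubilized formazan was read at 490 nm and percent inhibition versus negative control was calculated.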

[2] = system: Z138 cells; test: MTT cell proliferation assay, Z138; assay type: cell-based; details: Homo sapiens, Z-138, Z138 cells, read-out: MTT Assay IC50, Z138
Method in brief: as §1

[3] = system: 3T3 cells; test: MTT cell proliferation assay, 3T3; assay type: cell-based, mouse; details: Mus musculus, NIH3T3, 3T3 cells, read-out: MTT Assay IC50, 3T3
Method in brief: as §1

[4] = eight concentrations 1 nM to 30 μM, incubation approximately 64-72 hours
[5] = approximately 64-72 hours incubation

Compound | IC50 [1, 4] [µM] | IC50 [2, 4] [µM] | IC50 [3, 4] [µM] | IC50 [1, 5] [µM] | IC50 [2, 5] [µM] | IC50 [3, 5] [µM]
CC(=O)c1ccc(-c2cc(Cl)c3c(c2)CC(CNC(=O)/C=C/c2ccc(C)nc2C)O3)s1 (stereo not drawn) [Compound 174, (E)-N-((5-(5-acetylthiophen-2-yl)-7-chloro-2,3-dihydrobenzofuran-2-yl)methyl)-3-(2,6-dimethylpyridin-3-yl)acrylamide] | > 30 | > 30 | > 30 | – | – | –
CCc1nc(C)c(/C=C/C(=O)NCC2Cc3cc(-c4ccc(C(C)=O)s4)cc(Cl)c3O2)[nH]1 (stereo not drawn) [Compound 177, (E)-N-((5-(5-acetylthiophen-2-yl)-7-chloro-2,3-dihydrobenzofuran-2-yl)methyl)-3-(2-ethyl-4-methyl-1H-imidazol-5-yl)acrylamide] | 0.1 to 5 | 0.1 to 5 | > 30 | – | – | –
C/C=C/C(=O)NCC1Cc2cc(-c3ccc(C(C)=O)s3)cc(Cl)c2O1 (stereo not drawn) [Compound 181, (E)-N-((5-(5-acetylthiophen-2-yl)-7-chloro-2,3-dihydrobenzofuran-2-yl)methyl)but-2-enamide] | > 30 | > 30 | > 30 | – | – | –
CC(=O)c1ccc(-c2cc(Cl)c3c(c2)CC(CNC(=O)/C=C/c2cccnc2C)O3)s1 (stereo not drawn) [Compound 182, (E)-N-((5-(5-acetylthiophen-2-yl)-7-chloro-2,3-dihydrobenzofuran-2-yl)methyl)-3-(2-methylpyridin-3-yl)acrylamide] | 5 to 30 | > 30 | > 30 | – | – | –
CC(=O)c1ccc(-c2cc(Cl)c3c(c2)CC(CNC(=O)/C=C/c2cc(C)[nH]c2C)O3)s1 (stereo not drawn) [Compound 185, (E)-N-((5-(5-acetylthiophen-2-yl)-7-chloro-2,3-dihydrobenzofuran-2-yl)methyl)-3-(2,5-dimethyl-1H-pyrrol-3-yl)acrylamide] | > 30 | > 30 | > 30 | – | – | –
CC(=O)c1ccc(-c2cc(Cl)c3c(c2)CC(CNC(=O)/C=C/c2cn(C)c4ccccc24)O3)s1 (stereo not drawn) [Compound 189, (E)-N-((5-(5-acetylthiophen-2-yl)-7-chloro-2,3-dihydrobenzofuran-2-yl)methyl)-3-(1-methyl-1H-indol-3-yl)acrylamide] | > 30 | > 30 | > 30 | – | – | –
CC(=O)c1ccc(-c2cc(Cl)c3c(c2)CC(CNC(=O)/C=C/c2nc4ccccc4s2)O3)s1 (stereo not drawn) [Compound 190, (E)-N-((5-(5-acetylthiophen-2-yl)-7-chloro-2,3-dihydrobenzofuran-2-yl)methyl)-3-(benzo[d]thiazol-2-yl)acrylamide] | > 30 | > 30 | > 30 | – | – | –
CCn1ccnc1/C=C/C(=O)NCC1Cc2cc(-c3ccc(C(C)=O)s3)cc(Cl)c2O1 (stereo not drawn) [Compound 191, (E)-N-((5-(5-acetylthiophen-2-yl)-7-chloro-2,3-dihydrobenzofuran-2-yl)methyl)-3-(1-ethyl-1H-imidazol-2-yl)acrylamide] | – | – | – | 5 to 30 | 5 to 30 | > 30
CC(=O)c1ccc(-c2cc(Cl)c3c(c2)CC(CNC(=O)/C(C#N)=C/c2cccnc2)O3)s1 (stereo not drawn) [Compound 195, (E)-N-((5-(5-acetylthiophen-2-yl)-7-chloro-2,3-dihydrobenzofuran-2-yl)methyl)-2-cyano-3-(pyridin-3-yl)acrylamide] | – | – | – | 5 to 30 | 5 to 30 | > 30
CC(=O)c1ccc(-c2cc(Cl)c3c(c2)CC(CNC(=O)/C=C/c2coc(C)n2)O3)s1 (stereo not drawn) [Compound 196, (E)-N-((5-(5-acetylthiophen-2-yl)-7-chloro-2,3-dihydrobenzofuran-2-yl)methyl)-3-(2-methyloxazol-4-yl)acrylamide] | – | – | – | > 30 | > 30 | > 30
CC(=O)c1ccc(-c2cc(Cl)c3c(c2)CC(CNC(=O)/C=C/c2csc4ccccc24)O3)s1 (stereo not drawn) [Compound 200, (E)-N-((5-(5-acetylthiophen-2-yl)-7-chloro-2,3-dihydrobenzofuran-2-yl)methyl)-3-(benzo[b]thiophen-3-yl) acrylamide] | – | – | – | > 30 | > 30 | > 30
CC(=O)c1ccc(-c2cc(Cl)c3c(c2)CC(CNC(=O)/C=C/c2nccn2-c2ccccc2)O3)s1 (stereo not drawn) [Compound 201, (E)-N-((5-(5-acetylthiophen-2-yl)-7-chloro-2,3-dihydrobenzofuran-2-yl)methyl)-3-(1-phenyl-1H-imidazol-2-yl)acrylamide] | – | – | – | 5 to 30 | 5 to 30 | 5 to 30
CC(=O)c1ccc(-c2cc(Cl)c3c(c2)CC(CNC(=O)/C=C/c2cnc(C(C)(C)C)s2)O3)s1 (stereo not drawn) [Compound 205, (E)-N-((5-(5-acetylthiophen-2-yl)-7-chloro-2,3-dihydrobenzofuran-2-yl)methyl)-3-(2-tert-butylthiazol-5-yl)acrylamide] | – | – | – | 5 to 30 | 0.1 to 5 | > 30
CC(=O)c1ccc(-c2cc(Cl)c3c(c2)CC(CNC(=O)/C=C/c2csc(-c4ccc(F)cc4)n2)O3)s1 (stereo not drawn) [Compound 206, (E)-N-((5-(5-acetylthiophen-2-yl)-7-chloro-2,3-dihydrobenzofuran-2-yl)methyl)-3-(2-(4-fluorophenyl)thiazol-4-yl)acrylamide] | – | – | – | > 30 | > 30 | > 30
CC(=O)c1ccc(-c2cc(Cl)c3c(c2)CC(CNC(=O)/C=C/c2nccs2)O3)s1 (stereo not drawn) [Compound 207] | – | – | – | > 30 | > 30 | > 30
CC(=O)c1ccc(-c2cc(Cl)c3c(c2)CC(CNC(=O)/C=C/c2c(C)nn(-c4ccc(F)cc4)c2C)O3)s1 (stereo not drawn) [Compound 208, (E)-N-((5-(5-acetylthiophen-2-yl)-7-chloro-2,3-dihydrobenzofuran-2-yl)methyl)-3-(1-(4-fluorophenyl)-3,5-dimethyl-1H-pyrazol-4-yl)acrylamide] | – | – | – | 5 to 30 | 5 to 30 | > 30
CC(=O)c1ccc(-c2cc(Cl)c3c(c2)CC(CNC(=O)/C=C/c2cc(C)n(-c4ccc(Cl)cc4)c2C)O3)s1 (stereo not drawn) [Compound 209, (E)-N-((5-(5-acetylthiophen-2-yl)-7-chloro-2,3-dihydrobenzofuran-2-yl)methyl)-3-(1-(4-chlorophenyl)-2,5-dimethyl-1H-pyrrol-3-yl)acrylamide] | – | – | – | > 30 | > 30 | > 30
CC(=O)c1ccc(-c2cc(Cl)c3c(c2)CC(CNC(=O)/C=C/c2cncc(S(=O)(=O)N(C)C)c2)O3)s1 (stereo not drawn) [Compound 210, (E)-N-((5-(5-acetylthiophen-2-yl)-7-chloro-2,3-dihydrobenzofuran-2-yl)methyl)-3-(5-(N,N-dimethylsulfamoyl)pyridin-3-yl)acrylamide] | – | – | – | 5 to 30 | > 30 | > 30
CC(=O)c1ccc(-c2cc(Cl)c3c(c2)CC(CNC(=O)/C=C/c2c(C)nn(-c4ccccc4)c2Cl)O3)s1 (stereo not drawn) [Compound 211, (E)-N-((5-(5-acetylthiophen-2-yl)-7-chloro-2,3-dihydrobenzofuran-2-yl)methyl)-3-(5-chloro-3-methyl-1-phenyl-1H-pyrazol-4-yl)acrylamide] | – | – | – | > 30 | > 30 | > 30
CC(=O)c1ccc(-c2cc(Cl)c3c(c2)CC(CNC(=O)/C=C/c2[nH]cnc2C)O3)s1 (stereo not drawn) [Compound 212, (E)-N-((5-(5-acetylthiophen-2-yl)-7-chloro-2,3-dihydrobenzofuran-2-yl)methyl)-3-(4-methyl-1H-imidazol-5-yl)acrylamide] | – | – | – | 5 to 30 | 5 to 30 | > 30
CC(=O)c1ccc(-c2cc(Cl)c3c(c2)CC(CNC(=O)/C=C/c2ccn(C)c2)O3)s1 (stereo not drawn) [Compound 213, (E)-N-((5-(5-acetylthiophen-2-yl)-7-chloro-2,3-dihydrobenzofuran-2-yl)methyl)-3-(1-methyl-1H-pyrrol-3-yl)acrylamide] | – | – | – | > 30 | > 30 | > 30
CC(=O)c1ccc(-c2ccc(Cl)c3c2CC(CNC(=O)/C=C/c2ccc(N)nc2)O3)s1 (stereo not drawn) [Compound 218, hydrochloride] | – | – | – | < 0.1 | < 0.1 | 5 to 30
CC(=O)c1ccc(-c2cc(Cl)c3c(c2)CC(CNC(=O)/C=C/Cc2cccnc2)O3)s1 (stereo not drawn) [Compound 222, (E)-N-((5-(5-acetylthiophen-2-yl)-7-chloro-2,3-dihydrobenzofuran-2-yl)methyl)-4-(pyridin-3-yl)but-2-enamide] | – | – | – | 0.1 to 5 | 0.1 to 5 | 5 to 30
CC(=O)c1ccc(-c2cc(Cl)c3c(c2)CC(CNC(=O)/C=C/n2cncn2)O3)s1 (stereo not drawn) [Compound 229, (E)-N-((5-(5-acetylthiophen-2-yl)-7-chloro-2,3-dihydrobenzofuran-2-yl)methyl)-3-(1H-1,2,4-triazol-1-yl)acrylamide] | – | – | – | > 30 | > 30 | > 30
CN(C)C(=O)c1ccc(-c2cc(Cl)c3c(c2)CC(CNC(=O)/C=C/c2ccc(N)nc2)O3)cc1 (stereo not drawn) [Compound 233, (E)-4-(2-((3-(6-aminopyridin-3-yl)acrylamido)methyl)-7-chloro-2,3-dihydrobenzofuran-5-yl)-N,N-dimethylbenzamide] | – | – | – | 0.1 to 5 | < 0.1 | 5 to 30
Nc1ccc(/C=C/C(=O)NCC2Cc3cc(-c4ccc(C(=O)N5CCCCC5)cc4)cc(Cl)c3O2)cn1 (stereo not drawn) [Compound 234, (E)-3-(6-aminopyridin-3-yl)-N-((7-chloro-5-(4-(piperidine-1-carbonyl)phenyl)-2,3-dihydrobenzofuran-2-yl)methyl)acrylamide] | – | – | – | < 0.1 | < 0.1 | 5 to 30
